Data as given in patent publication US20160367659A1, “VIRAL PEPTIDES” (EQUIGERMINAL SA, priority 2013, published 2016).
Where a SMILES comes first, the peptide text is derived from it. [ ]: non-standard residue; d: D form. The star is where a group is joined. Sta = CC(C)C[C@H](N)[C@@H](O)CC(=O)O; Isovaleryl = CC(C)CC(=O)*

Key:
mab#4G6E4 = test: ELISA dose response of mab#4G6E4 on peptide-coated wells; assay type: binding, Mouse
Method: For that, serial dilutions of peptides in duplicates (1:1.3 or 1:1.4 in 0.05M carbonate buffer pH=9.3) ranging between 5 to 500 ng/mL were covalently linked to 96 microwell Poylsorp amino plates (Nunc, Thermofisher) for two hours at room temperature. To remove unbound peptide, plates were washed three times with PBS-Tween20 (0.005%) in an automated Wellwasher apparatus (Thermoscientific). After washing, plates were blocked by adding 300 microliters/well of Superblock T20 in PBS (Thermoscientific, Pierce). Superblock T20 was immediately removed and plates inverted till drying out. After blocked and dried plates were ready for c-ELISA or to be stored at 4-8° C. for further testing. […]
A rapid (2 hours) c-ELISA procedure was performed as follows: 70 ng/mL of mab#4G6E4 alone (50 microliters) diluted in dilution buffer was added to peptide-coated wells and incubated for 1 hour at 37° C. After 1 hour of incubation plates were extensively washed with 300 microliters of PBS-Tween20 (0.05%) for three times. The plate was after that incubated with a secondary goat anti-mouse IgG-HRP (Sigma Aldrich) at 1:2500 dilution and incubated for 30 minutes at 37° C. Plates were washed again four times with 300 microliters of PBS-Tween20 (0.05%) and signal developed by adding 50 microliters of fresh TMB reagent (Sigma Aldrich) for 15 minutes at room temperature. After colour development the reaction was stopped by adding 50 microliters of 1N H2SO4 (Sigma Aldrich). Determination of absorbance was obtained by reading plates at 450 nm in a Multiskan Go ELISA reader (Thermoscientific).
Dose responses curves were analysed by GraphPad Prism 6.0 software by using the four parameter function log(agonist) vs response with a variable slope. […] The Hill slope was very high for both peptides 7.2 for SEQ ID NO: 159 and 6.6 for SEQ ID NO: 20. The results are indicating high affinity between the mab and the peptide sequences (FIG. 6A1).
Furthermore dose response curves were optimized in order to decrease the Hill Slope and turn the assay more sensitive. […]

[1] = system: protease activity of NEV fractions; test: In vitro protease cleavage activity of NEV viral protein fractions (fluorescence assay); assay type: biochemical; settings: inhibitor 10 μM; Phe-Phe substrate pH 3 and 4, HIV substrate 1 pH 5; fractions 12, 15 and 16
Method: To assess for in vitro proteolytic cleavage activity, cell infections were performed in serum free media conditions. Day 5-7 p.i. viral particles were concentrated and extensively washed with HBSS in Vivaspin 100 kDa (Sartorius) columns. Concentrated viral particles were lysed in 0.1% SDS and submitted to analytical size-exclusion chromatography on a Superdex 200 5/150 GL (GE Healthcare Life Sciences) column connected to a Prominence HPLC system (Shimadzu Corporation, Tokyo, Japan). The column was equilibrated in 20 mM phosphate buffer pH 7.5 containing 150 mM NaCl.
The protease activity was determined by fluorescence assays in 96-well plates in a Gemini EM Fluorescence Microplate Reader, using the HIV Protease Substrate 1 Arg-Glu(EDANS)-Ser-Gln-Asn-Tyr-Pro-Ile-Val-Gln-Lys(DABCYL)-Arg (Sigma Aldrich) or the Phe-Phe substrate. For determination of the pH profile, viral particles were assayed for activity at 37° C. in buffers ranging between pH 3 and 6 (50 mM sodium acetate pH 3.0, 4.0, 5.0, and 6.0; 50 mM Tris-HCl […]) containing 100 mM NaCl. To test the specificity of enzymatic cleavage, Indinavir (Sigma Aldrich), a specific inhibitors of HIV protease, or pepstatin were used. The protease was pre-incubated in the presence of the inhibitor. […] The rate of substrate hydrolysis was monitored for 3 hours by the increase of intensity with excitation/emission wavelengths of 328/393 nm.

[2] = 70 ng/mL mab#4G6E4 diluted in 3% BSA, peptide 5 to 500 ng/mL, four parameter fit

| Compound | EC50 (mab#4G6E4; [2]) [µg/mL] | EC50 (mab#4G6E4; mab#4G6E4 (70 ng/mL) in 0.025% casein blocking instead of 3% BSA) [µg/mL] | inhibition of the protease activity of NEV fractions [1] |
| --- | --- | --- | --- |
| EALDKIEEIQNKNKQKAAAQEQNPPPSVSLRSLFG [SEQ ID NO: 159] | 0.1635 | 0.059 |  |
| CC(C)CC(=O)N[C@H](C(=O)N[C@H](C(=O)N[C@@H](CC(C)C)[C@@H](O)CC(=O)N[C@@H](C)C(=O)N[C@@H](CC(C)C)[C@@H](O)CC(=O)O)C(C)C)C(C)C [pepstatin] (Isovaleryl-VV[Sta]A[Sta]-OH) |  |  | able to inhibit |
| CC(C)(C)NC(=O)[C@@H]1CN(Cc2cccnc2)CCN1C[C@@H](O)C[C@@H](Cc1ccccc1)C(=O)N[C@H]1c2ccccc2C[C@H]1O [Indinavir] |  |  | able to inhibit |
| QEQNPPPSVSLRSLFGNDPL [SEQ ID NO: 20] | 0.1937 |  |  |
